Assay results as given in ChEMBL document CHEMBL4321875, “Potent, Selective, Water Soluble, Brain-Permeable EP2 Receptor Antagonist for Use in Central Nervous System Disease Models” (J Med Chem, 2020).
≈ marks a conversion by molar mass, not a printed value.

Legend:
[1] = Aqueous solubility in PBS pH 7.4 incubated for 24 hrs by nephelometry; assay type: physicochemical
[2] = Stability in mouse liver microsomes assessed as half life at 1 uM incubated for 120 mins by LC-MS/MS analysis; assay type: ADME, Microsome; details: 2 h
[3] = Solubility of compound at 2 mg/ml incubated for 24 hrs by shake flask thermodynamic solubility method based HPLC analysis; assay type: physicochemical

Compound	solubility kinetic at 24 h [1]	t1/2 [2]	solubility thermodynamic at 24 h [3]
Cc1[nH]c2ccccc2c1CCNC(=O)c1ccc(N2CCOCC2)cc1	70 µM (≈ 25.4 µg/mL)		
Cc1[nH]c2ccccc2c1CCNC(=O)c1ccc(N2CCOCC2)nc1	206 µM (≈ 75.1 µg/mL)		
Cc1[nH]c2ccccc2c1CCNC(=O)c1cnc(Nc2ccncc2)nc1	38 µM (≈ 14.2 µg/mL)		
Cc1cc(C)nc(Nc2ncc(C(=O)NCCc3c(C(F)(F)F)[nH]c4ccccc34)cn2)c1	45 µM (≈ 20.5 µg/mL)		
Cc1ccnc(Nc2ncc(C(=O)NCCc3c(C)[nH]c4ccccc34)cn2)c1	25 µM (≈ 9.66 µg/mL)	8 min	
Cc1cc(C)nc(Nc2ncc(C(=O)NCCc3c(C(F)(F)F)[nH]c4ccccc34)cn2)c1.Cl			700 µM
Cc1ccc(Nc2ncc(C(=O)NCCc3c(C)[nH]c4ccccc34)cn2)c(C)n1	100 µM (≈ 40 µg/mL)		
